Patent US20110039879A1, “METHODS FOR INCREASING WHITE BLOOD CELLS” (FibroGen ,Inc., priority 2007, published 2011)

Columns and labels:
Format in all cases: in vivo, Swiss-Webster mice
[1] = system: neutrophils; assay: Neutrophils by complete blood count, once daily dosing 3 or 4 days; settings: mice, oral gavage, blood 6 h after final dosing, CBC
Method: (§1) To examine the effect of compounds and methods of the present invention on increasing white blood cells, the following studies were performed. In one series of experiments, male Swiss-Webster mice were administered various compounds of the present invention via oral gavage using a ball-tipped gavage needle. Animals treated by oral gavage received a 10 ml/kg volume of either 0.5% carboxymethyl cellulose (CMC) with 0.1% Polysorbate 80 (vehicle control) or various doses (10-100 mg/kg) of a compound of the present invention in 0.5% CMC with 0.1% Polysorbate 80. Animals were dosed once daily for 3 or 4 days. Six hours after the final dosing, 200 μl blood samples were collected and total white blood cell, neutrophil, and lymphocyte levels were measured by complete blood count (CBC) using a CellDyn cell analyzer (Abbott Laboratories).

[2] = system: lymphocytes; assay: Lymphocytes by complete blood count, once daily dosing 3 or 4 days; settings: mice, oral gavage, blood 6 h after final dosing, CBC
Method: as §1

[3] = system: neutrophils; assay: Neutrophils (Mac-1+/Gr-1+) in blood by FACS analysis; settings: mice, oral gavage, blood 6 h after final dosing
Method: (§2) To examine the effect of compounds and methods of the present invention on hematopoietic progenitor cell (HPC) and neutrophil levels, the following studies were performed. Male Swiss-Webster mice were administered various compounds of the present invention via oral gavage using a ball-tipped gavage needle. Animals treated by oral gavage received a 10 ml/kg volume of either 0.5% carboxymethyl cellulose (CMC) with 0.1% Polysorbate 80 (vehicle control) or various doses (10-100 mg/kg) of a compound of the present invention in 0.5% CMC with 0.1% Polysorbate 80. Animals were dosed once daily for 3 or 4 days.
(§3) Six hours after the final dosing, 200 μl blood samples were collected for detection of hematopoietic progenitor cells (HPCs) and neutrophils by FACS analysis using methods previously described. (See, e.g., Wang et al. (1997) J Leukoc Biol 62 503-9 and Legasse et al. (1996) J Immunol Methods 197:139-50.) Briefly, leukocytes and progenitor cells were isolated from whole blood samples following erythrocyte depletion using red blood cell lysis buffer (eBioscience) according to the manufacturer's instructions. The remaining cells were incubated for one hour with monoclonal antibodies directed against mouse Sca-1 and mouse c-Kit (cell surface markers for HPCs, BD Pharmingen), or mouse Mac-1 and mouse Gr-1 (cell surface markers for murine neutrophils, BD Pharmingen). Following incubation with the monoclonal antibodies, the cells were washed three times with sort buffer (PBS, 1% fetal bovine serum) and resuspended in sort buffer containing 50 μg/ml of propidium iodide. Samples were then analyzed for the presence and quantitation of HPCs and neutrophils by flow cytometry (FACS Calibur, Becton Dickinson). The cytometer was set to acquire 10 000 events. Two or three blood samples obtained from each animal were analyzed and the average recorded. Hematopoietic progenitor cells were determined as double positive Sca-1+/c-Kit+ cells and neutrophils were determined as double positive Mac-1+/Gr-1+ cells.

[4] = system: hematopoietic progenitor cells (HPCs); assay: Hematopoietic progenitor cells (Sca-1+/c-Kit+) in blood by FACS analysis; settings: mice, oral gavage, blood 6 h after final dosing
Method: as §2, §3

[5] = system: neutrophils in bone marrow; assay: Neutrophils in bone marrow by FACS analysis; settings: mice, oral gavage, tibia bone marrow 6 h after final dosing
Method: as §3
(§4) To examine the effect of compounds and methods of the present invention on hematopoietic progenitor cell (HPC) and neutrophil levels in bone marrow, the following studies were performed. Male Swiss-Webster mice were administered various compounds of the present invention via oral gavage using a ball-tipped gavage needle. Animals treated by oral gavage received a 10 ml/kg volume of either 0.5% carboxymethyl cellulose (CMC) with 0.1% Polysorbate 80 (vehicle control) or various doses (10-100 mg/kg) of a compound of the present invention in 0.5% CMC with 0.1% Polysorbate 80. Animals were dosed once daily for 3 or 4 days. Six hours after the final dosing, bone marrow samples were taken from one tibia of each animal and suspended in buffer (PBS with 1% fetal bovine serum). Bone marrow suspensions were then filtered through nylon filters to remove stromal cells. Following filtration, the remaining cells were counted manually using a hemocytometer. Detection and quantitation of HPCs and neutrophils were performed by FACS analysis as described above in Example 1.

[6] = system: hematopoietic progenitor cells (HPCs) in bone marrow; assay: Hematopoietic progenitor cells in bone marrow by FACS analysis; settings: mice, oral gavage, tibia bone marrow 6 h after final dosing
Method: as §3, §4

[7] = system: total white blood cell (WBC); assay: Total white blood cells by complete blood count, once daily dosing 3 or 4 days; settings: mice, oral gavage, blood 6 h after final dosing
Method: as §1

[8] = 100 mg/kg once daily for 4 days

Cc1cccc(C)c1Oc1ccc2c(C#N)nc(C(=O)NCC(=O)O)c(O)c2c1 [Compound C]
Neutrophils ([1]; 20 mg/kg once daily for 3 days): 0.97 10^3 cells/μl | Neutrophils % Increase Over Control ([1]; 20 mg/kg once daily for 3 days): 142% | Neutrophils ([1]; 20 mg/kg once daily for 4 days): 0.77 10^3 cells/μl | Neutrophils % Increase Over Control ([1]; 20 mg/kg once daily for 4 days): −4% | Neutrophils ([1]; 60 mg/kg once daily for 3 days): 1.73 10^3 cells/μl | Neutrophils % Increase Over Control ([1]; 60 mg/kg once daily for 3 days): 333% | Neutrophils ([1]; 60 mg/kg once daily for 4 days): 1.37 10^3 cells/μl | Neutrophils % Increase Over Control ([1]; 60 mg/kg once daily for 4 days): 71% | Lymphocytes ([2]; 20 mg/kg once daily for 3 days): 10.63 10^3 cells/μl | Lymphocytes % Increase Over Control ([2]; 20 mg/kg once daily for 3 days): 117% | Lymphocytes ([2]; 20 mg/kg once daily for 4 days): 17.97 10^3 cells/μl | Lymphocytes % Increase Over Control ([2]; 20 mg/kg once daily for 4 days): 192% | Lymphocytes ([2]; 60 mg/kg once daily for 3 days): 12.70 10^3 cells/μl | Lymphocytes % Increase Over Control ([2]; 60 mg/kg once daily for 3 days): 159% | Lymphocytes ([2]; 60 mg/kg once daily for 4 days): 22.77 10^3 cells/μl | Lymphocytes % Increase Over Control ([2]; 60 mg/kg once daily for 4 days): 270% | Blood Neutrophils ([3]; 20 mg/kg once daily for 3 days): 1,375 cells/μl | Blood Neutrophils Fold Increase Over Control ([3]; 20 mg/kg once daily for 3 days): 2.8 fold | Percent Blood Neutrophils ([3]; 20 mg/kg once daily for 3 days): 11.6 % gated cells | Percent Blood Neutrophils Fold Increase Over Control ([3]; 20 mg/kg once daily for 3 days): 1.2 fold | Blood Neutrophils ([3]; 20 mg/kg once daily for 4 days): 1,067 cells/μl | Blood Neutrophils Fold Increase Over Control ([3]; 20 mg/kg once daily for 4 days): 2.0 fold | Percent Blood Neutrophils ([3]; 20 mg/kg once daily for 4 days): 15.8 % gated cells | Percent Blood Neutrophils Fold Increase Over Control ([3]; 20 mg/kg once daily for 4 days): 1.5 fold | Blood Neutrophils ([3]; 60 mg/kg once daily for 3 days): 2,487 cells/μl | Blood Neutrophils Fold Increase Over Control ([3]; 60 mg/kg once daily for 3 days): 5.1 fold | Percent Blood Neutrophils ([3]; 60 mg/kg once daily for 3 days): 17.6 % gated cells | Percent Blood Neutrophils Fold Increase Over Control ([3]; 60 mg/kg once daily for 3 days): 1.8 fold | Blood Neutrophils ([3]; 60 mg/kg once daily for 4 days): 2,933 cells/μl | Blood Neutrophils Fold Increase Over Control ([3]; 60 mg/kg once daily for 4 days): 5.5 fold | Percent Blood Neutrophils ([3]; 60 mg/kg once daily for 4 days): 12.2 % gated cells | Percent Blood Neutrophils Fold Increase Over Control ([3]; 60 mg/kg once daily for 4 days): 1.2 fold | Blood HPCs ([4]; 20 mg/kg once daily for 3 days): 403 cells/μl | Blood HPCs Fold Increase Over Control ([4]; 20 mg/kg once daily for 3 days): 2.7 fold | Percent Blood HPCs ([4]; 20 mg/kg once daily for 3 days): 3.4 % gated cells | Percent Blood HPCs Fold Increase Over Control ([4]; 20 mg/kg once daily for 3 days): 1.6 fold | Blood HPCs ([4]; 20 mg/kg once daily for 4 days): 155 cells/μl | Blood HPCs Fold Increase Over Control ([4]; 20 mg/kg once daily for 4 days): 1.9 fold | Percent Blood HPCs ([4]; 20 mg/kg once daily for 4 days): 0.9 % gated cells | Percent Blood HPCs Fold Increase Over Control ([4]; 20 mg/kg once daily for 4 days): 0.7 fold | Blood HPCs ([4]; 60 mg/kg once daily for 3 days): 486 cells/μl | Blood HPCs Fold Increase Over Control ([4]; 60 mg/kg once daily for 3 days): 3.3 fold | Percent Blood HPCs ([4]; 60 mg/kg once daily for 3 days): 3.4 % gated cells | Percent Blood HPCs Fold Increase Over Control ([4]; 60 mg/kg once daily for 3 days): 1.5 fold | Blood HPCs ([4]; 60 mg/kg once daily for 4 days): 336 cells/μl | Blood HPCs Fold Increase Over Control ([4]; 60 mg/kg once daily for 4 days): 4.1 fold | Percent Blood HPCs ([4]; 60 mg/kg once daily for 4 days): 1.4 % gated cells | Percent Blood HPCs Fold Increase Over Control ([4]; 60 mg/kg once daily for 4 days): 1.2 fold | Percent Bone Marrow Neutrophils ([5]; 20 mg/kg once daily for 3 days): 47.1 % gated cells | Percent Bone Marrow Neutrophils Fold Increase Over Control ([5]; 20 mg/kg once daily for 3 days): 1.2 fold | Percent Bone Marrow Neutrophils ([5]; 60 mg/kg once daily for 3 days): 41.3 % gated cells | Percent Bone Marrow Neutrophils Fold Increase Over Control ([5]; 60 mg/kg once daily for 3 days): 1.0 fold | Percent Bone Marrow HPCs ([6]; 20 mg/kg once daily for 3 days): 4.9 % gated cells | Percent Bone Marrow HPCs Fold Increase Over Control ([6]; 20 mg/kg once daily for 3 days): 1.5 fold | Percent Bone Marrow HPCs ([6]; 20 mg/kg once daily for 4 days): 1.4 % gated cells | Percent Bone Marrow HPCs Fold Increase Over Control ([6]; 20 mg/kg once daily for 4 days): 1.2 fold | Percent Bone Marrow HPCs ([6]; 60 mg/kg once daily for 3 days): 6.1 % gated cells | Percent Bone Marrow HPCs Fold Increase Over Control ([6]; 60 mg/kg once daily for 3 days): 1.8 fold | Percent Bone Marrow HPCs ([6]; 60 mg/kg once daily for 4 days): 1.8 % gated cells | Percent Bone Marrow HPCs Fold Increase Over Control ([6]; 60 mg/kg once daily for 4 days): 1.5 fold | Total WBC ([7]; 20 mg/kg once daily for 3 days): 11.80 10^3 cells/μl | Total WBC % Increase Over Control ([7]; 20 mg/kg once daily for 3 days): 117% | Total WBC ([7]; 20 mg/kg once daily for 4 days): 18.83 10^3 cells/μl | Total WBC % Increase Over Control ([7]; 20 mg/kg once daily for 4 days): 167% | Total WBC ([7]; 60 mg/kg once daily for 3 days): 14.50 10^3 cells/μl | Total WBC % Increase Over Control ([7]; 60 mg/kg once daily for 3 days): 166% | Total WBC ([7]; 60 mg/kg once daily for 4 days): 24.33 10^3 cells/μl | Total WBC % Increase Over Control ([7]; 60 mg/kg once daily for 4 days): 245%

COc1ccc(Oc2ccc3c(O)c(C(=O)NCC(=O)O)ncc3c2)cc1 [Compound A, {[4-Hydroxy-7-(4-methoxy-phenoxy)-isoquinoline-3-carbonyl]-amino}-acetic acid]
Neutrophils ([1]; 60 mg/kg once daily for 3 days): 0.78 10^3 cells/μl | Neutrophils % Increase Over Control ([1]; 60 mg/kg once daily for 3 days): 18% | Neutrophils [1, 8]: 1.22 10^3 cells/μl | Neutrophils % Increase Over Control [1, 8]: 94% | Lymphocytes ([2]; 60 mg/kg once daily for 3 days): 7.82 10^3 cells/μl | Lymphocytes % Increase Over Control ([2]; 60 mg/kg once daily for 3 days): 14% | Lymphocytes [2, 8]: 8.30 10^3 cells/μl | Lymphocytes % Increase Over Control [2, 8]: 8% | Blood Neutrophils ([3]; 60 mg/kg once daily for 3 days): 200 cells/μl | Blood Neutrophils Fold Increase Over Control ([3]; 60 mg/kg once daily for 3 days): 2.0 fold | Percent Blood Neutrophils ([3]; 60 mg/kg once daily for 3 days): 2.3 % gated cells | Percent Blood Neutrophils Fold Increase Over Control ([3]; 60 mg/kg once daily for 3 days): 1.6 fold | Blood Neutrophils [3, 8]: 1,083 cells/μl | Blood Neutrophils Fold Increase Over Control [3, 8]: 6.1 fold | Percent Blood Neutrophils [3, 8]: 11.3 % gated cells | Percent Blood Neutrophils Fold Increase Over Control [3, 8]: 3.4 fold | Blood HPCs ([4]; 60 mg/kg once daily for 3 days): 76 cells/μl | Blood HPCs Fold Increase Over Control ([4]; 60 mg/kg once daily for 3 days): 1.7 fold | Percent Blood HPCs ([4]; 60 mg/kg once daily for 3 days): 0.9 % gated cells | Percent Blood HPCs Fold Increase Over Control ([4]; 60 mg/kg once daily for 3 days): 1.4 fold | Blood HPCs [4, 8]: 125 cells/μl | Blood HPCs Fold Increase Over Control [4, 8]: 7.4 fold | Percent Blood HPCs [4, 8]: 1.3 % gated cells | Percent Blood HPCs Fold Increase Over Control [4, 8]: 4.1 fold | Percent Bone Marrow Neutrophils ([5]; 60 mg/kg once daily for 3 days): 33.4 % gated cells | Percent Bone Marrow Neutrophils Fold Increase Over Control ([5]; 60 mg/kg once daily for 3 days): 1.1 fold | Percent Bone Marrow Neutrophils [5, 8]: 33.7 % gated cells | Percent Bone Marrow Neutrophils Fold Increase Over Control [5, 8]: 1.3 fold | Percent Bone Marrow HPCs ([6]; 60 mg/kg once daily for 3 days): 5.1 % gated cells | Percent Bone Marrow HPCs Fold Increase Over Control ([6]; 60 mg/kg once daily for 3 days): 1.3 fold | Percent Bone Marrow HPCs [6, 8]: 6.7 % gated cells | Percent Bone Marrow HPCs Fold Increase Over Control [6, 8]: 1.5 fold | Total WBC ([7]; 60 mg/kg once daily for 3 days): 8.66 10^3 cells/μl | Total WBC % Increase Over Control ([7]; 60 mg/kg once daily for 3 days): 12% | Total WBC [7, 8]: 9.62 10^3 cells/μl | Total WBC % Increase Over Control [7, 8]: 14%
